Experimental data taken from patent US11452781B2, “Method of preventing and treating type 1 diabetes, allograft rejection and lung fibrosis (by targeting the ATP/P2X7R axis)” (CHILDREN'S MEDICAL CENTER CORPORATION, priority 2013, dated 2022).
Entries after “also recorded” stand apart in the source; their conditions may differ.

How the values were obtained:
[1] = tested on: C57BL/6 mice transplanted with BALB/c hearts; type: in vivo, mouse; set-up: long-term cardiac transplant survival (>100 days), share of recipients: dose or concentration left out as unconfirmed; conditions: oATP i.p. daily for 14 days
Protocol: The effect of P2X7R targeting in preventing cardiac transplant rejection was tested using the P2X7R inhibitor oATP.
The effect of P2X7R targeting in preventing cardiac transplant rejection was tested by using the P2X7R inhibitor oATP.

[2] = tested on: islet allografts; assay: Islet allograft pathology, RT-PCR transcripts, insulin and glucagon content; type: in vivo, mouse
Protocol: The presence of […] was then analyzed in the graft infiltrate by quantification, via RT-PCR, by assessing intra-graft Tbet and Rorc mRNA expression.

[3] = tested on: STAT3; assay: STAT3 phosphorylation in CD4+ T cells of cardiac-transplanted mice (Western blot); type: in vivo, mouse; conditions: 7 days after transplantation
Protocol: Several key components of T-cell receptor signaling involved in the alloimmune response were examined, and the phosphorylation kinetics following in vitro anti-CD3-Ig/anti-CD28-Ig-mediated CD4+ T-cell activation was evaluated by using the Luminex assay. […] The inventors first confirmed that Colivelin (Col) was able to restore the activation-induced phosphorylation of STAT3 in a dose-dependent manner in oATP-treated CD4+ T cells by Western blotting. […] The effect of oATP and Colivelin on STAT3 phosphorylation and T-cell function was also evaluated following cardiac transplantation.

[4] = tested on: NOD mice; assay: Diabetes onset in NOD mice (prevention); type: in vivo, mouse
Protocol: Untreated NOD mice invariably developed diabetes by 15-20 weeks of age (FIGS. 5A-5E). […] Rapamycin (0.1 mg/kg for 10 days) treatment was again synergistic with oATP treatment, inducing a further delay in the onset of diabetes (FIG. 7) with 70% of mice protected from diabetes at 25 weeks, while rapamycin treatment alone was ineffective in delaying diabetes in NOD mice (FIG. 7). This group of experiments confirmed that the ATP/P2X7R axis is indeed relevant to allo- and autoimmune responses in vivo and that P2X7R targeting can be viewed as a novel strategy to curb both responses.
Consequently, NOD mice were treated with oATP.

[5] = tested on: C57BL/6 mice transplanted with Bm12 left lung; assay: Allogeneic orthotopic left lung transplantation, Bm12 into C57BL/6; type: in vivo, mouse
Protocol: The effect of oATP treatment in a model of allogeneic orthotropic left lung transplantation (Bm12 into C57BL/6) was assessed. Graft rejection and tissue fibrosis occurs early after transplantation and it is complete by day 30. […] CT scan was also performed in untreated or oATP-treated mice. Radiological analysis confirmed the preserved alveolar space and thus the functional integrity of oATP-treated compared to untreated mice (FIG. 8). oATP treatment is a rescue therapy for lung rejection. In a complementary experiment, oATP was tested as a rescue therapy for lung rejection. Bm12 left lung was transplanted into C57BL/6 mice and oATP treatment was started at day 10 after transplantation (when graft infiltration and rejection are evident) and mice follow for 30 days.

[6] = tested on: ABM CD4+ TCR-Tg T cells; assay: Alloantigen-specific ABM CD4+ TCR-Tg T cells, bm12 hearts into C57BL/6 Rag-/- mice; type: in vivo, mouse
Text: To address whether the inhibition of the effector T-cell compartment is related to reduced priming and expansion of alloreactive T cells or to their increased apoptosis, alloreactive-specific T cells were tracked in a transgenic model of cardiac transplantation. Bm12 hearts were transplanted into C57BL/6 Rag−/− mice, and 3×10^6 ABM CD4+ TCR-Tg T cells (specific for bm12 major histocompatibility complex class II antigens) were subsequently adoptively transferred into cardiac transplant recipients.

[7] = tested on: B6 recipients of BALB/c lung allografts; assay: Mouse orthotopic lung transplant, BALB/c donor and C57BL/6 recipient; type: in vivo
Protocol: Orthotopic left lung transplants were performed as previously described {Bizargity, #22; Iken, #21}. Briefly, donor mice were anesthetized with ketamine and xylazine, intubated with a 22 G Angiocath, and ventilated with isoflurane/oxygen. Lungs were flushed with ice cold phosphate buffered saline, left lung harvested and cuffs placed in the pulmonary artery, pulmonary vein and bronchus. Recipient mice were anesthetized and ventilated with isoflurane/oxygen, and left lung transplants performed via a thoracotomy and implantation of the three-cuffed hilar structures. Transplanted lungs were harvested 15 to 60-70 days following transplantation.
Allografts were evaluated 15, 30, and 60-70 days after transplant.
Outcome Measures—In vivo assessment of transplanted lung function was performed by thoracic CT scan imaging and measuring peak airway pressures (PawP) as previously described {Bizargity, #22}. […] Flow cytometry and enzyme-linked immunosorbent spot assay (ELISPOT) for interferon (IFN)-γ and interleukin (IL)-4 were performed as previously described {Vergani, #25; Vergani, #9}.

[8] = tested on: mouse CD8 T cells; assay: Isolated CD8 T cells stimulated with anti-CD3, TNF-α, IFN-γ and granzyme B expression; type: cell-based; conditions: anti-CD3 10 μg/ml
[9] = tested on: C57BL/6 splenocytes; assay: Apoptosis of allo-challenged splenocytes (annexin V, FACS); conditions: oATP, 24 h
Protocol: To confirm the data obtained in vivo, the effect of targeting P2X7R in vitro was evaluated using alloimmune-relevant assays. Responder splenocytes from C57BL/6 mice were challenged with irradiated stimulator splenocytes from BALB/c mice. The numbers of cells producing IFN-γ and IL-4 were evaluated in an ELISPOT assay in the presence of increasing concentrations of oATP.

periodate-oxidized ATP [oATP]
long-term cardiac transplant survival (>100 days), share of recipients [1]: 80%
islet structure, insulin and glucagon staining ([2]; day 14 (oATP), long-term (oATP+rapamycin)): preserved insulin staining; also recorded: maintained
reduction of Tbet mRNA expression vs untreated ([2]; day 14, n=3): threefold decrease
phosphorylated STAT3 in CD4+ T cells [3]: reduced levels
delay of diabetes onset ([4]; 4-week-old NOD mice, daily i.p. for 30 days (early prevention)): delays diabetes onset
delay of diabetes onset ([4]; 10-week-old NOD mice (late prevention)): delay
mice protected from diabetes at 25 weeks of age ([4]; 10-week-old NOD mice, oATP 250 μg i.p. daily 14 days, Rapamycin 0.1 mg/kg 10 days): 50%
lung function (PawP, compliance) after rescue therapy ([5]; oATP started at day 10): Better functional preservation of lung compliance
radiological and histological analysis after rescue therapy ([5]; oATP started at day 10, followed for 30 days): reversal of graft rejection and no signs of fibrosis; also recorded: preservation of alveolar space
graft fibrosis, inflammation and alveolar spaces ([5]; treatment from transplantation): prevents graft fibrosis; also recorded: highly reduced inflammation and preserved alveolar spaces
TCR-Tg T-cell apoptosis ([6]; 4 days following adoptive transfer): without substantial differences
ABM CD4+ TCR-Tg T-cell proliferation (CFSE dilution) ([6]; mouse, in vivo): decrease
numbers of Teffs and Th17 cells within the Tg population ([6]; mouse, in vivo): marked reduction
numbers of ABM CD4+ TCR-Tg T cells ([6]; seven days posttransplantation): reduced numbers
lung function (PawP) ([7]; 15 to ≥60 days): significantly improved
percentage of Th17 cells ([7]; 15 days): not a significant difference
total number of Th17 cells ([7]; 15 days): reduction; also recorded: fewer
total number of Treg ([7]; 15 days): reduction; also recorded: fewer
BAL ATP levels ([7]; 15 days post transplant): significant reduction
acute rejection, comparison of treatments (FIG. 17) ([7]; 30 days, CSA 10 mg/kg/day, CTLA-4Ig 250 μg, oATP 250 μg/day, Rap 0.1 mg/kg/day): better outcomes than cyclosporine alone; also recorded: more robust as compared to CSA
thoracic CT imaging of left lung allografts ([7]; all three time points): little infiltrate
number of leucocytes and lymphocytes isolated from lung allografts ([7]; day 15, flow cytometry, vs untreated): nearly half; also recorded: significantly fewer
effector memory T cells (CD44highCD62Llow) ([7]; lung allograft T cells): inhibitory effect; also recorded: significant reduction
IFN-γ and IL-4 response of isolated T cells (ELISPOT) ([7]; most pronounced after 15 days): impaired
CD4 and CD8 T cells within lung allografts ([7]; mouse, in vivo): decrease
amount of inflammation (score 0-4) / histology ([7]; mouse, in vivo): remarkable reduction; also recorded: limited disease
percentage of CD8 Tcm (CD8+CD44+CD62L+CCR7+) ([7]; mouse, in vivo): increased
percentage of Treg ([7]; mouse, in vivo): not a remarkable difference
lung allograft survival / function ([7]; oATP daily IP): > 60 days
lung function (PawP) after rescue dosing ([7]; oATP days 15-30): improved; also recorded: significant improvement
expression of TNF-α, IFN-γ and granzyme B [8]: reduction; also recorded: impaired activation
percentage of apoptotic cells (annexin V+) [9]: no increase
